What all share (format): biochemical
For one test, the target named is Human Thrombin (Homo sapiens, UniProt P00734). Description: Inhibition of the amidase activity of thrombin (Kass). The note with it: chromogenic substrate N-benzoyl-Phe-Val-Arg-p-nitroanilide; mean over range of concentrations.
A further test deals with T1, factor Xa (Homo sapiens, UniProt P00742).
T1 construct: Human factors X, Xa, IXa, XIa, and XIIa are purchased; purchased Enzyme Research Laboratories, South Bend, Ind
Description: Kass, factor Xa chromogenic substrate assay. The note with it: substrate N-Benzoyl-Ile-Glu-Gly-Arg-p-nitroanilide.

The target in the next test is T2, Bovine trypsin (Bos taurus, UniProt P00760).
T2 construct: Bovine trypsin is purchased from Worthington Biochemicals; purchased Worthington Biochemicals, Freehold, N.J
T2 sequence (P00760 24-246): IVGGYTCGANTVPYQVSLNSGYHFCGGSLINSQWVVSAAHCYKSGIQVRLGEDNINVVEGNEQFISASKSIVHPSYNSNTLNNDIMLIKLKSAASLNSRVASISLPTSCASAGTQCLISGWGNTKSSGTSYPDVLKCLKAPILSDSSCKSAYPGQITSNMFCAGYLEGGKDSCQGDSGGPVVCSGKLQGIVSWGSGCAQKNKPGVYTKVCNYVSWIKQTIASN
Description: Kass, trypsin chromogenic substrate assay. The note with it: substrate N-Benzoyl-Phe-Val-Arg-p-nitroanilide.

The target of the next test is T3, Human plasmin (Homo sapiens, UniProt P00747).
T3 construct: Human plasmin is purchased from Boehringer Mannheim; purchased Boehringer Mannheim, Indianapolis, Ind
Description: Kass, plasmin chromogenic substrate assay. The note with it: substrate H-D-Val-Leu-Lys-p-nitroanilide.

The next test concerns the target T4, t-PA (Homo sapiens, UniProt P00750).
T4 construct: purchased American Diagnostica, Greenwich, Conn
Kind of test: Kass, t-PA chromogenic substrate assay. The conditions noted are these: substrate H-D-Ile-Pro-Arg-p-nitroanilide.

Test [1] deals with Human Plasma. Kind of test: Human plasma anticoagulation, thrombin time (TT). The conditions noted are these: concentration required to double the clotting time. The gist of the method:
(§1)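 Compounds added across a wide concentration range to plasma; PT measured with Thromboplastin-C, APTT after 120 s Actin incubation then 0.02 M CaCl2, TT with bovine thrombin (10 NIH units/mL). Clotting-time doubling concentrations estimated by linear extrapolation.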

For test [2], the system named is Human Plasma. Kind of test: Human plasma anticoagulation, activated partial thromboplastin time (APTT). The conditions noted are these: concentration required to double the clotting time. The gist of the method:
as §1

The subject of test [3] is Human Plasma. Description: Human plasma anticoagulation, prothrombin time (PT). The conditions noted are these: concentration required to double the clotting time. The gist of the method:
as §1

These results are taken from patent US5705487A, “Antithrombotic agents” (priority 1995, dated 1998).

Where a name gives a salt, the structure may show the parent alone. Bounds are passed on as bounds.

T3 sequence (P00747 581-810 limits assumed): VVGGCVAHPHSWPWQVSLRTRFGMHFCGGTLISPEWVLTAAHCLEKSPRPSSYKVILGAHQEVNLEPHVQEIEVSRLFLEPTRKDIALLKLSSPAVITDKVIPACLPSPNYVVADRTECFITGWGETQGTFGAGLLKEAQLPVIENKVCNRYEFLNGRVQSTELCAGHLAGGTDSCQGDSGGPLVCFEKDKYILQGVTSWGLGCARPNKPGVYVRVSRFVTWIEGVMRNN
T3 sequence (P00747 97-580 partner limits assumed): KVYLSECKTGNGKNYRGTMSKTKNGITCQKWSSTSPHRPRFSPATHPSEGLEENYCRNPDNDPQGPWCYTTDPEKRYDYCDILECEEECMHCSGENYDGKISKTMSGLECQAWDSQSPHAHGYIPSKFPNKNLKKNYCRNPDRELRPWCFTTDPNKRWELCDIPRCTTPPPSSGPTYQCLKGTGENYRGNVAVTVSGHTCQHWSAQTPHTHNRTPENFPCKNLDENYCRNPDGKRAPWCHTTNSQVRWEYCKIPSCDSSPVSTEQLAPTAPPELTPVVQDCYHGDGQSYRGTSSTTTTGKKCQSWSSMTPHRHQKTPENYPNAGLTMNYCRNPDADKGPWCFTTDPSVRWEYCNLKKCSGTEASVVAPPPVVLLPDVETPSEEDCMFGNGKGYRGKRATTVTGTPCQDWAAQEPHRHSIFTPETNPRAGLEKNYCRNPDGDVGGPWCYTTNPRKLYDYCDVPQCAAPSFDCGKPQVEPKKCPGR
T4 sequence (P00750 36-562): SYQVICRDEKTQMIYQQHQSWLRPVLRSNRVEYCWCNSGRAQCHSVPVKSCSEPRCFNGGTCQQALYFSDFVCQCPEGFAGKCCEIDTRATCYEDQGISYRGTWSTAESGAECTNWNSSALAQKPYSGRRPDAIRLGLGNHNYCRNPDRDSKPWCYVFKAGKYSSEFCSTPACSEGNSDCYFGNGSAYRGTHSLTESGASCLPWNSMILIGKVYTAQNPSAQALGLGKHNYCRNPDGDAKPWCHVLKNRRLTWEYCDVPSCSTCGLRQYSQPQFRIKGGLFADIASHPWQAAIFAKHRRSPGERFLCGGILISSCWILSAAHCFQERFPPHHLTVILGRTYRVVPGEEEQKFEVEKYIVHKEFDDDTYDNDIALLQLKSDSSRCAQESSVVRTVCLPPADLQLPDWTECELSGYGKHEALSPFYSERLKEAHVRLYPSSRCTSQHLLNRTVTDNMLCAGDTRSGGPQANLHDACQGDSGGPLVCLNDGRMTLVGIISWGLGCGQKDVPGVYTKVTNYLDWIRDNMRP
T1 sequence (P00742 235-488 limits assumed): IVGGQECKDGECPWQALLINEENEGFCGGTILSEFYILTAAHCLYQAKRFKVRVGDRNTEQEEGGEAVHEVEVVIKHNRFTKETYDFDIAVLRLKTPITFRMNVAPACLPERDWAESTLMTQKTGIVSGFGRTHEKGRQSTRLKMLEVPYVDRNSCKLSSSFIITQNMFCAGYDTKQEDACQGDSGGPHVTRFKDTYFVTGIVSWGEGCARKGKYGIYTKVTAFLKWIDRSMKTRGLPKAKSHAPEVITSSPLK
T1 sequence (P00742 41-179 partner limits assumed): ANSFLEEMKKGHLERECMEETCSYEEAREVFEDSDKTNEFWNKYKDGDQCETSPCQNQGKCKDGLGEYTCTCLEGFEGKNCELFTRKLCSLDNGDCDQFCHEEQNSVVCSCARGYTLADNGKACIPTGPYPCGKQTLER
Description for Bovine trypsin: (§2) By substantially following the procedures described above for human thrombin, and using other human blood coagulation system serine proteases and proteases of the fibrinolytic system with the appropriate chromogenic substrates, identified below, selectivity of the compounds of the present invention with respect to the coagulation factor serine proteases and with respect to the fibrinolytic system serine proteases are evaluated as well as their substantial lack of interference with serine proteases of the fibrinolytic system.
Chromogenic substrates: N-Benzoyl-Ile-Glu-Gly-Arg-p-nitroanilide (for factor Xa); N-Cbz-D-Arg-Gly-Arg-p-nitroanilide (for factor IXa assay as the factor Xa substrate); Pyroglutamyl-Pro-Arg-p-nitroanilide (for Factor XIa and for aPC); H-D-Pro-Phe-Arg-p-nitroanilide (for factor XIIa); and Pyroglutamyl-Gly-Arg-p-nitroanilide (for urokinase); are purchased from KabiVirum, Stockholm, Sweden, or from Midwest Biotech, Fishers, Ind. Bovine trypsin is purchased from Worthington Biochemicals, Freehold, N.J., and human plasma kallikrein from Kabi Vitrum, Stockholm, Sweden. […] N-Benzoyl-Phe-Val-Arg-p-nitroanilide, the substrate for human thrombin and for trypsin, is synthesized according to procedures described above for the compounds of the present invention, using known methods of peptide coupling from commercially available reactants or purchased from Midwest Biotech, Fishers, Ind.
Description for Human plasmin: as §2
Human plasmin is purchased from Boehringer Mannheim, Indianapolis, Ind.; nt-PA is purchased as single chain activity reference from American Diagnostica, Greenwich, Conn.; modified-t-PA6 (mt-PA6) is prepared at Eli Lilly and Company by procedure known in the art (See, Burck, et al., J. Biol. Chem., 265, 5120-5177 (1990). Plasmin chromogenic substrate H-D-Val-Leu-Lys-p-nitroanilide and tissue plasminogen activator (t-PA) substrate H-D-Ile-Pro-Arg-p-nitroanilide are purchased from Kabi Vitrum, Stockholm, Sweden.

Consider `N=C(N)c1ccc(CCNC(=O)[C@@H]2CCCN2C(=O)[C@@H]2NCC[C@@H]3CCCC[C@@H]32)cc1` [Example 28, 1-Piq-Pro-p-NHCH2 CH2 -C6 H4 C(=NH)NH2.2HCl], for which the “Kass × 10^6 (L/mole) Human Thrombin” value on Human Thrombin is listed as 0.95 × 10^6 L/mole. Also, the “Kass × 10^6 (L/mole) Xa” value on factor Xa is reported as 0.01 × 10^6 L/mole. At Bovine trypsin, the “Kass × 10^6 (L/mole) Trypsin” value is 0.11 × 10^6 L/mole. Also, at Human plasmin, the “Kass × 10^6 (L/mole) Plasmin” value is < 0.001 × 10^6 L/mole. Further, at t-PA, the “Kass × 10^6 (L/mole) t-PA” value is listed as < 0.001 × 10^6 L/mole. In addition, the “Human Plasma Anticoagulation 2x Clotting time TT” value in the test on Human Plasma [1] stood at 520 ng/mL. Also, the “Human Plasma Anticoagulation 2x Clotting time APTT” value in the test with Human Plasma [2] was 8,100 ng/mL. For the same compound, the “Human Plasma Anticoagulation 2x Clotting time PT” value in the test on Human Plasma [3] is 8,300 ng/mL.

For `O=C(O)CN[C@H](CC1CCCCC1)C(=O)N1CCC[C@H]1C(=O)NCCCC1CCNCC1` [Example 55, HO2 CCH2 -D-Cha-Pro-4-NHCH2 CH2 CH2 -piperidine.HCl], the “Kass × 10^6 (L/mole) Human Thrombin” value at Human Thrombin is listed as 0.01 × 10^6 L/mole. In addition, the “Kass × 10^6 (L/mole) Xa” value on factor Xa is listed as < 0.001 × 10^6 L/mole. In addition, at Bovine trypsin, the “Kass × 10^6 (L/mole) Trypsin” value is on record as 0.01 × 10^6 L/mole. At Human plasmin, the “Kass × 10^6 (L/mole) Plasmin” value is < 0.001 × 10^6 L/mole. Further, the “Kass × 10^6 (L/mole) t-PA” value at t-PA is listed as < 0.001 × 10^6 L/mole. For the same compound, the “Human Plasma Anticoagulation 2x Clotting time TT” value with Human Plasma [1] is on record as 55,800 ng/mL. For the same compound, the “Human Plasma Anticoagulation 2x Clotting time APTT” value in the test with Human Plasma [2] is > 91,000 ng/mL. Further, the “Human Plasma Anticoagulation 2x Clotting time PT” value with Human Plasma [3] is given as > 91,000 ng/mL.

For `Cl.N=C(N)c1ccc(CNC(=O)[C@@H]2CCCN2C(=O)[C@@H](CC2CCCCC2)NCCC(=O)O)cc1` [Example 52, HOOCCH2 CH2 -D-Cha-Pro-p-NHCH2 C6 H4 C(NH)NH2.HCl], the “Kass × 10^6 (L/mole) Human Thrombin” value at Human Thrombin is on record as 700 × 10^6 L/mole. In addition, the “Kass × 10^6 (L/mole) Xa” value at factor Xa is 0.46 × 10^6 L/mole. Besides, the “Kass × 10^6 (L/mole) Trypsin” value at Bovine trypsin is reported as 47. × 10^6 L/mole. The “Kass × 10^6 (L/mole) Plasmin” value on Human plasmin was 0.11 × 10^6 L/mole. The “Kass × 10^6 (L/mole) t-PA” value on t-PA is given as 0.01 × 10^6 L/mole. The “Human Plasma Anticoagulation 2x Clotting time TT” value with Human Plasma [1] was 6 ng/mL. In addition, the “Human Plasma Anticoagulation 2x Clotting time APTT” value in the test with Human Plasma [2] is listed as 80 ng/mL. Further, the “Human Plasma Anticoagulation 2x Clotting time PT” value with Human Plasma [3] is recorded as 170 ng/mL.

`N=C(N)c1cccc(CCNC(=O)[C@@H]2CCCN2C(=O)[C@@H]2NCC[C@@H]3CCCC[C@@H]32)c1` [Example 29, 1-Piq-Pro-m-NHCH2 CH2 -C6 H4 C(=NH)NH2.2HCl]: the “Kass × 10^6 (L/mole) Human Thrombin” value on Human Thrombin is 0.76 × 10^6 L/mole. For the same compound, the “Kass × 10^6 (L/mole) Xa” value on factor Xa is 0.02 × 10^6 L/mole. In addition, the “Kass × 10^6 (L/mole) Trypsin” value on Bovine trypsin is listed as 0.02 × 10^6 L/mole. Besides, the “Kass × 10^6 (L/mole) Plasmin” value at Human plasmin is < 0.001 × 10^6 L/mole. Moreover, the “Kass × 10^6 (L/mole) t-PA” value at t-PA was < 0.001 × 10^6 L/mole. The “Human Plasma Anticoagulation 2x Clotting time TT” value in the test on Human Plasma [1] came to 750 ng/mL. Moreover, in the test with Human Plasma [2], the “Human Plasma Anticoagulation 2x Clotting time APTT” value is on record as 9,800 ng/mL. Moreover, the “Human Plasma Anticoagulation 2x Clotting time PT” value in the test on Human Plasma [3] is 15,800 ng/mL.

As to `CCS(=O)(=O)N[C@H](Cc1ccccc1)C(=O)N1[C@H](C(=O)NCc2ccc(C(=N)N)cc2)C[C@@H]2CCCC[C@@H]21` (relative stereo) [Example 45, EtSO2 -Phe-cis-Ohi-p-NHCH2 C6 H4 C(NH)NH2.HCl], at Human Thrombin, the “Kass × 10^6 (L/mole) Human Thrombin” value was 610 × 10^6 L/mole. Besides, the “Kass × 10^6 (L/mole) Xa” value on factor Xa is 1.5 × 10^6 L/mole. Besides, the “Kass × 10^6 (L/mole) Trypsin” value on Bovine trypsin is 110. × 10^6 L/mole. Moreover, the “Kass × 10^6 (L/mole) Plasmin” value at Human plasmin is given as 1.1 × 10^6 L/mole. Also, the “Kass × 10^6 (L/mole) t-PA” value at t-PA is 0.77 × 10^6 L/mole. For the same compound, the “Human Plasma Anticoagulation 2x Clotting time TT” value with Human Plasma [1] was determined as 8 ng/mL. Besides, in the test on Human Plasma [2], the “Human Plasma Anticoagulation 2x Clotting time APTT” value worked out at 200 ng/mL. The “Human Plasma Anticoagulation 2x Clotting time PT” value in the test on Human Plasma [3] is given as 330 ng/mL.

`N=C(N)c1cccc(CNC(=O)[C@@H]2CCCN2C(=O)[C@@H]2NCC[C@@H]3CCCC[C@@H]32)c1` [Example 25, D-1-Piq-Pro-m-NHCH2 -C6 H4 C(=NH)NH2.HCl]: at Human Thrombin, the “Kass × 10^6 (L/mole) Human Thrombin” value was 0.43 × 10^6 L/mole. Besides, at factor Xa, the “Kass × 10^6 (L/mole) Xa” value is < 0.001 × 10^6 L/mole. For the same compound, the “Kass × 10^6 (L/mole) Trypsin” value on Bovine trypsin was 0.01 × 10^6 L/mole. The “Kass × 10^6 (L/mole) Plasmin” value at Human plasmin was < 0.001 × 10^6 L/mole. Also, the “Kass × 10^6 (L/mole) t-PA” value at t-PA was 0.01 × 10^6 L/mole. The “Human Plasma Anticoagulation 2x Clotting time TT” value in the test with Human Plasma [1] is reported as 1,430 ng/mL. Also, the “Human Plasma Anticoagulation 2x Clotting time APTT” value with Human Plasma [2] is listed as 34,600 ng/mL. Moreover, the “Human Plasma Anticoagulation 2x Clotting time PT” value with Human Plasma [3] is reported as 40,400 ng/mL.

`N=C(N)NCCCCNC(=O)[C@@H]1CCCN1C(=O)[C@@H]1NCC[C@H]2CCCC[C@H]21` [Example 61, N-[4-[(aminoiminomethyl)amino]butyl]-1-[[(4aR,8aR)-decahydro-1(R)-isoquinolinyl]carbonyl]-1-prolinamide trihydrochloride]: the “Kass × 10^6 (L/mole) Human Thrombin” value at Human Thrombin is 63 × 10^6 L/mole. For the same compound, the “Kass × 10^6 (L/mole) Xa” value on factor Xa is listed as 0.03 × 10^6 L/mole. Besides, the “Kass × 10^6 (L/mole) Trypsin” value on Bovine trypsin is 1.0 × 10^6 L/mole. The “Kass × 10^6 (L/mole) Plasmin” value on Human plasmin was 0.004 × 10^6 L/mole. In addition, the “Kass × 10^6 (L/mole) t-PA” value on t-PA is 0.008 × 10^6 L/mole. In addition, in the test on Human Plasma [1], the “Human Plasma Anticoagulation 2x Clotting time TT” value is 45 ng/mL. The “Human Plasma Anticoagulation 2x Clotting time APTT” value in the test with Human Plasma [2] came out at 679 ng/mL. Moreover, the “Human Plasma Anticoagulation 2x Clotting time PT” value in the test on Human Plasma [3] is on record as 756 ng/mL.

As for `CCS(=O)(=O)N[C@H](Cc1ccccc1)C(=O)N1CCC[C@H]1C(=O)NCCc1ccc(C(=N)N)cc1` [Example 26, EtSO2 -D-Phe-Pro-p-NHCH2 CH2 -C6 H4 C(=NH)NH2.HCl], the “Kass × 10^6 (L/mole) Human Thrombin” value on Human Thrombin was 13. × 10^6 L/mole. Besides, at factor Xa, the “Kass × 10^6 (L/mole) Xa” value is on record as 0.01 × 10^6 L/mole. In addition, on Bovine trypsin, the “Kass × 10^6 (L/mole) Trypsin” value was 0.21 × 10^6 L/mole. On Human plasmin, the “Kass × 10^6 (L/mole) Plasmin” value is given as 0.01 × 10^6 L/mole. The “Kass × 10^6 (L/mole) t-PA” value at t-PA is 0.01 × 10^6 L/mole. The “Human Plasma Anticoagulation 2x Clotting time TT” value in the test on Human Plasma [1] is listed as 37 ng/mL. Further, the “Human Plasma Anticoagulation 2x Clotting time APTT” value in the test on Human Plasma [2] was 870 ng/mL. Moreover, the “Human Plasma Anticoagulation 2x Clotting time PT” value in the test with Human Plasma [3] came to 750 ng/mL.

Consider `Cl.O=C(O)CN[C@H](CC1CCCCC1)C(=O)N1CCC[C@H]1C(=O)NCCCC1=CCNCC1` [Example 60, HO2 CCH2 -D-Cha-Pro-4-NHCH2 CH2 CH2 -3,4-dehydro-piperidine.HCl], for which the “Kass × 10^6 (L/mole) Human Thrombin” value on Human Thrombin is 0.24 × 10^6 L/mole. On factor Xa, the “Kass × 10^6 (L/mole) Xa” value was < 0.001 × 10^6 L/mole. Also, the “Kass × 10^6 (L/mole) Trypsin” value on Bovine trypsin was 0.03 × 10^6 L/mole. Further, at Human plasmin, the “Kass × 10^6 (L/mole) Plasmin” value is < 0.001 × 10^6 L/mole. In addition, the “Kass × 10^6 (L/mole) t-PA” value on t-PA was < 0.001 × 10^6 L/mole. Moreover, the “Human Plasma Anticoagulation 2x Clotting time TT” value in the test on Human Plasma [1] is recorded as 3,200 ng/mL. For the same compound, the “Human Plasma Anticoagulation 2x Clotting time APTT” value with Human Plasma [2] was 22,200 ng/mL. Further, the “Human Plasma Anticoagulation 2x Clotting time PT” value with Human Plasma [3] is given as 77,700 ng/mL.

In the case of `N=C(N)c1ccc(CNC(=O)[C@@H]2C[C@@H]3CCCC[C@@H]3N2C(=O)[C@@H](Cc2ccccc2)NCC(=O)O)cc1` (relative stereo) [Example 47, HOOCCH2 -D-Phe-cis-Ohi-p-NHCH2 C6 H4 C(NH)NH2.HCl], the “Kass × 10^6 (L/mole) Human Thrombin” value at Human Thrombin was 45 × 10^6 L/mole. Moreover, the “Kass × 10^6 (L/mole) Xa” value at factor Xa is reported as 0.04 × 10^6 L/mole. In addition, the “Kass × 10^6 (L/mole) Trypsin” value on Bovine trypsin is given as 82. × 10^6 L/mole. Further, the “Kass × 10^6 (L/mole) Plasmin” value at Human plasmin is 0.18 × 10^6 L/mole. Also, at t-PA, the “Kass × 10^6 (L/mole) t-PA” value was 0.01 × 10^6 L/mole. Further, the “Human Plasma Anticoagulation 2x Clotting time TT” value in the test with Human Plasma [1] worked out at 12. ng/mL. Moreover, in the test with Human Plasma [2], the “Human Plasma Anticoagulation 2x Clotting time APTT” value was determined as 140 ng/mL. For the same compound, the “Human Plasma Anticoagulation 2x Clotting time PT” value in the test with Human Plasma [3] is on record as 270 ng/mL.
